In patent publication US20220125877A1, “METHOD FOR TREATING COLORECTAL CANCER” (SUN YAT-SEN UNIVERSITY, priority 2019, published 2022):

Tests used:
[1] = test system: metastatic colorectal cancer (mCRC) patients with T2DM; test: Retrospective study of OS and PFS of first-line chemotherapy in mCRC patients with T2DM (Kaplan-Meier, stratified Cox proportional hazard model), SYSUCC 2004-2016; format: in vivo, human
Description: General clinical characteristics of the patients, such as, sex, age and body mass index (BMI) and the clinical characteristics affecting mCRC prognosis in the existing research reports (such as, primary tumor site, pathological grading, metastatic site, first-line chemotherapy regimen and KRAS genotype) were collected to exclude confounding factors, thus making the influences of metformin on the overall survival (OS) of the mCRC patients with T2DM and the progression free survival (PFS) of the first-line chemotherapy clear.
GraphPad Prism 7 was used to draw a Kaplan-Meier curve, and Log-rank (Mantel-Cox) statistical analysis was performed; stratified HR was additionally used to make a statistics on the influences on OS and PFS between different hypoglycemic agents use and the without anti-diabetic treatments.
A stratified Cox proportional hazard model was used for stratification on the above collected clinical characteristics to explore the individual factors influencing the efficacy of metformin.
After through the proportional hazard assumption, it is further assumed that sex, age, BMI, primary tumor site, pathological grading, metastatic site, and KRAS genotype may serve as confounding factors to make an impact on the anti-tumor effect of metformin. Therefore, hierarchical regression analysis was performed on the above clinical characteristics, thus determining the individual difference interacting with metformin.

[2] = test system: KRAS G13D, G12D and G12V mutation colorectal cancer cells; test: Cell viability, metformin with a gradient concentration; format: cell-based, human; conditions: FIG. 6
Description: (§4) The cells were inoculated on a plate according to the concentration of 5000 cells/well (48-well plate, 200 μl per well). The cells were treated with different ways according to the experimental requirements, and 10 μl CCK8 solution was added after a period of time. The cells were incubated for 1 h in an incubator; 200 μl supernatant were absorbed into a 96-well ELISA plate to determine OD450 with a microplate reader.
(2) Metformin with a gradient concentration was used in vitro to treat KRAS wildtype colorectal cancer cell lines SW48 and CaCO2, KRAS G13D-mutation colorectal cancer cell lines HCT-116 and LoVo, as well as KRAS G12V-mutation colorectal cancer cell lines SW480 and SW620. In addition, the metformin with a gradient concentration was used to treat the KRAS wildtype colorectal cancer cell line SW48 transfected with KRAS G12V, KRAS G13D and KRAS G12D plasmids.

[3] = test system: LoVo cell line with knock-down KRAS protein; test: Cell viability in KRAS knock-down cells; format: cell-based, human; conditions: relative to LoVo, FIG. 8D
Description: as §4
2) LoVo cells were subcultured to a 6-well plate (about 1×10^5/well), when cells were subjected to adherence growth, and the degree of cell fusion was not greater than 50%, fresh culture solution was replaced ahead of 2 h, and 10 μg/mL lentivirus infection enhancer polybrene was added. Multiplicity of Infection (MOI) of LoVo was about 20; lentivirus was added according to the formula: adding amount of lentivirus per well (μl)=MOI×cell population/titer (TU/ml)×1000. The culture solution was replaced after 16-18 h, and 1 μM puromycin was conventionally added for screening the cell line whose RNA stable expression was interfered by KRAS.

[4] = test system: KRAS (G13D) mutation cells constructed via the CRISPR/Cas9 system; test: Concentration of metformin in cells by mass spectrometry; format: cell-based, human; conditions: compared with the control cell, FIG. 11C
Description: (§1) The increase of concentration of metformin in KRAS mutation cells was verified by using the KRAS (G13D) mutation cells constructed via the CRISPR/Cas9 system and the LoVo cell line with stable knock-down KRAS.
(§2) Metformin was used to detect the KRAS (G13D) mutation cells constructed via the CRISPR/Cas9 system and the LoVo cell line with stable knock-down KRAS to collect cell lysis solution at different time points, and the concentration of metformin in the cells was detected by mass spectrometry.

[5] = test system: LoVo cell line with stable knock-down KRAS; test: as above; format: cell-based, human; conditions: relative to LoVo, FIG. 11D
Description: as §1, §2

[6] = Concentration of metformin in tumor tissues by mass spectrometry; format: in vivo; conditions: KRAS mutation vs KRAS wildtype tumor tissues, FIG. 11F
Description: The concentration of metformin in KRAS wildtype and mutation tumor tissues was detected by mass spectrometry.

[7] = test system: colorectal cancer cells (LoVo, SW48) with altered MATE1; test: Proliferation with MATE1 over-expressed on LoVo or interfered on SW48; format: cell-based, human; conditions: FIGS. 12E-F
[8] = test system: KRAS^G13DSW48 graft with MATE1 over-expressed; test: Cell-derived xenograft (CDX), tumor growth; format: in vivo, BALB/c nude mice; conditions: 200 mg/kg in water, 30 d, compared with the KRAS^G13DSW48 tumor, FIGS. 12G-L
Description: (§3) In the CDX, CRISPR/Cas9 was first utilized to build a KRAS^G13DSW48 cell line; MATE1 was knocked down by shRNA lentivirus transduction in SW48 to build a sh-MATE1-SW48 cell line; lentivirus was infected in KRAS^G13DSW48 cells to over-express MATE1. 1×10^6 cells were suspended in a basement membrane matrix (100 μl basement membrane matrix and 100 μl PBS) and subcutaneously injected into BALB/c nude mice. CDX mice were randomly distributed into a metformin treatment group and a control group. 200 mg/kg (equivalent to human 1000 mg) metformin was dissolved into water, and respectively taken by the 4 groups of animals; then the tumor size was measured; 30 d later, the tumor tissues were killed and weighed.

[9] = test system: SW48+sh-MATE1 CDX; test: Cell-derived xenograft (CDX), tumor growth; format: in vivo, BALB/c nude mice; conditions: 200 mg/kg in water, 30 d, MATE1 knocked down, FIGS. 12G-L
Description: as §3

[10] = metformin use vs non-metformin use, Age at diagnosis <60 years
[11] = metformin use vs non-metformin use, Age at diagnosis ≥60 years
[12] = metformin use vs non-metformin use, BMI Normal (18.5~23.0)
[13] = metformin use vs non-metformin use, BMI Pre- & obese (>23.0)
[14] = metformin use vs non-metformin use, KRAS genotype Wildtype
[15] = metformin use vs non-metformin use, Metastatic site Liver
[16] = metformin use vs non-metformin use, Metastatic site Multiple sites
[17] = metformin use vs non-metformin use, Moderately differentiated
[18] = metformin use vs non-metformin use, Poorly & un-differentiated
[19] = metformin use vs non-metformin use, Primary site Left colon
[20] = metformin use vs non-metformin use, Primary site Rectum
[21] = metformin use vs non-metformin use, Primary site Right colon
[22] = metformin use vs non-metformin use, Sex: Female
[23] = metformin use vs non-metformin use, Sex: Male
[24] = vs nonusers of hypoglycemic agents, stratified by age at diagnosis, adjusted for sex, BMI, primary site, metastatic site, pathological grading, KRAS genotype

## CN(C)C(=N)N=C(N)N [metformin]
[1]; KRAS mutation mCRC patients, P<0.001, FIGS. 3A-B
  overall survival, Kaplan-Meier curve: significantly extends
[1]; KRAS mutation mCRC patients, P<0.01, FIGS. 3A-B
  progression free survival of first-line chemotherapy, Kaplan-Meier curve: significantly extends
[1]; KRAS wildtype mCRC patients, FIGS. 3C-D
  efficacy on OS and PFS, Kaplan-Meier curve: has no efficacy
[1]; Kaplan-Meier, mCRC patients with T2DM, P=0.022, FIG. 2
  extension of median survival: 11.3 months
[1]; [10]
  OS HR (95% CI): 0.869
  PFS HR (95% CI): 1.074
[1]; [11]
  OS HR (95% CI): 0.596
  PFS HR (95% CI): 0.562
[1]; [12]
  OS HR (95% CI): 0.582
  PFS HR (95% CI): 0.884
[1]; [13]
  OS HR (95% CI): 0.702
  PFS HR (95% CI): 0.555
[1]; [14]
  OS HR (95% CI): 1.487
  PFS HR (95% CI): 1.194
[1]; [15]
  OS HR (95% CI): 1.151
  PFS HR (95% CI): 0.949
[1]; [16]
  OS HR (95% CI): 1.008
  PFS HR (95% CI): 0.818
[1]; [17]
  OS HR (95% CI): 0.676
  PFS HR (95% CI): 0.644
[1]; [18]
  OS HR (95% CI): 0.629
  PFS HR (95% CI): 0.811
[1]; [19]
  OS HR (95% CI): 0.982
  PFS HR (95% CI): 0.823
[1]; [20]
  OS HR (95% CI): 0.475
  PFS HR (95% CI): 0.544
[1]; [21]
  OS HR (95% CI): 0.729
  PFS HR (95% CI): 0.622
[1]; [22]
  OS HR (95% CI): 0.944
  PFS HR (95% CI): 0.697
[1]; [23]
  OS HR (95% CI): 0.673
  PFS HR (95% CI): 0.732
[1]; [24]
  OS HR (95% CI): 0.356
  PFS HR (95% CI): 0.630
[2]
  effect on cell viability: has an inhibiting effect
[3]
  inhibiting effect on cell viability after interference of KRAS (G13D) expression: down-regulate the inhibiting effect
[4]
  concentration of metformin in cells: obviously increased concentration
[5]
  concentration of metformin in cells: decreases obviously
[6]
  concentration of metformin in tumor tissues: higher than that in the KRAS wildtype tumor tissues
[7]
  inhibiting effect on proliferation with down-regulated expression of MATE1: accelerating the inhibiting effect
[8]
  anti-tumor effect (tumor growth): has no effect
[9]
  tumor growth: significantly inhibits the tumor growth
